# Assay results from paper PMC9410094 (Marine Drugs, 2022).
# Positions of bridges follow the written chain, without caps; N, C: chain ends. Residues, ends and D or L forms follow the SMILES beside them.
# Tests used:
# [1] = RP-HPLC retention time as measure of hydrophobicity; type: physicochemical; details: chromatographic, semipreparative RP-HPLC, C18 column, linear gradient 5 to 80% (v/v) acetonitrile in water with 0.1% TFA within 50 minutes; used as measure of hydrophobicity
# Experimental: Table S1. Characteristics of the recombinant AMPs.
# 1 Mean Kyte–Doolittle hydrophobicity index (GRAVY) was calculated using the Expasy ProtParam tool. The maximum and minimum values of this index are +4.5 and -4.5 for poly-Ile and poly-Arg sequences, respectively. 2 Retention times were measured using semipreparative reversed-phase high-performance liquid chromatography (RP - HPLC) on a C18 column with a linear gradient from 5 to 80% ( v/v) acetonitrile in water containing 0.1% trifluoroacetic […]
# acid (TFA) within 50 minutes. […]
# [2] = system: E. coli 3421/E19; assay: Neutropenic mice peritonitis model; type: in vivo, BALB/c mice; details: for Efficacy in the neutropenic peritonitis model (in words): single i.v. dose of 10 mg/kg, E. coli 3421/E19
# Experimental: Immune-deficient mice were inoculated intraperitoneally (i.p.) with bacterial suspension. Antimicrobial agent was administered 1 h post-infection, and colony counts in blood and peritoneal fluid (PF) were determined 5 h later.
# (A) The mice peritonitis model. […] Horizontal bars indicate means ± SD.
# Food and water were provided ad libitum.
# CFU counts were determined from blood and peritoneal fluid (PF) 5 h after treatment. The mice were euthanized by CO2 asphyxiation and blood was collected by axillary cut down. A total of 2 mL sterile saline was injected i.p. and the abdomen gently massaged before it was opened, fluid sampled with a pipette, serially diluted and placed on Endo agar supplemented with 20 µg/mL of tetracycline for CFU identification.
# [3] = system: E. coli ML-35p; details: for Fold reduction of antibacterial activity in the presence of serum: MHB + 0.9% NaCl with 25% FBS versus without
# Experimental: Initially, antimicrobial activity of abarenicin and UuBRI-21 was evaluated against the reference strain of E. coli (ML-35p) under various conditions (Table 1). Minimal inhibitory concentrations (MICs) were determined via two-fold serial dilutions in 96-well polystyrene plates. Serial dilutions were made in 0.1% bovine serum albumin (BSA) to minimize the absorption of peptides on the surface of plate wells. Mueller–Hinton broth (MHB) supplemented with 0.9% NaCl was used as the standardized medium.
# (§1) Bacterial cultures were grown in MHB at 37 °C until the culture reached an optical density OD600 of 1.0 and diluted with the broth so that to reach a final cell concentration of 10^6 CFU/mL. Then 50 μL of the test culture were added to 50 μL of aqueous solutions of the peptides, previously diluted in 0.1% sterilized bovine serum albumin (BSA) to reduce non-specific binding of the peptides to the surface of the plates. Next, the plate was incubated for 24 h at 37 °C and 950 rpm on the plate thermoshaker (Biosan). The values of the minimum inhibitory concentrations (MIC) were determined as the minimum concentration of the peptide, at which there is no culture growth. The results were expressed as the median values of three independent experiments performed in triplicate.
# [4] = system: human red blood cells; type: cell-based
# Experimental: Figure 4 (A) Hemolytic effect on human red blood cells after 2 h incubation (hemoglobin release assay). (B) Cytotoxicity toward transformed human embryonic kidney cells after 20 h incubation (MTT-assay). The positive control used was 0.1% Triton X-100 and sterile PBS as a negative control. Melittin was used as an additional positive control. The data are presented as the mean ± SD of three independent experiments.
# The hemolytic activity of compounds was performed using human red blood cells (hRBS) of healthy donor. Fresh blood was centrifuged to separate the erythrocyte fraction for 15 min at 500 g and washed three times with cold phosphate-buffered saline (PBS) (pH 7.4), after which an 8% (v/v) suspension of erythrocytes in PBS was prepared. Then, 50 µL of erythrocyte suspension was added to the test peptides, previously were dissolved in 50 µL of 0.1% BSA. The plate was incubated for 1.5 h at 37 °C and 950 rpm on the plate thermoshaker. After incubation, the plates were centrifuged for 15 min at 1000 g to settle intact erythrocytes. Next, aliquots of the supernatant were transferred to another plate to measure the amount of hemoglobin release by the absorbance of the solution at 405 nm. As “zero lysis” we used the supernatant obtained after centrifugation of erythrocytes incubated in a PBS solution without the addition of a peptide. As “100% lysis”, we used the supernatant obtained after centrifugation of erythrocytes incubated in a 0.1% Triton X-100, causing their complete lysis. The assays were conducted three times. The quantitative data were presented as an average means with standard deviations. Hemolysis(%)=OD405(compound)−OD405(zerolysis)/OD405(100%lysis)−OD405(zerolysis)×100%
# [5] = system: Gram-positive bacteria; type: cell-based; details: 24 h
# Experimental: as §1, with “The antimicrobial activity of the peptides was determined via the method of two-fold serial dilutions in sterile 96-well flat-bottom polystyrene microplates (Eppendorf #0030730011) in Mueller–Hinton broth (MHB, Sigma, Kawasaki, Kanagawa, Japan) supplemented with 0.9% NaCl. Bacterial” for “Bacterial”
# [6] = system: E. coli ATCC 25922; assay: Mice septicemia model, survival; details: BALB/c mice, n = 8, E. coli ATCC 25922 i.p. with 2.5% mucin
# Experimental: Ciprofloxacin (the single dose of 10 mg/kg) and saline were used as the positive and negative controls, respectively. […] Mice were controlled once daily for their health status during 7 post-infection days.
# Then, we examined an efficacy of AMPs in the mice septicemia model using 8 animals in a group (Figure 10B).
# Experiments were performed with female 8–10-week-old BALB/c mice (22–24 g, “Andreevka” laboratory animal nursery FMBA, Russia). […] All animal experiments were performed at the State Research Center for Applied Microbiology and Biotechnology (SRCAMB) in Obolensk, Russia. The animals were housed in groups of 5 in polycarbonate cages. Food and water were provided ad libitum.
# A total of 4 groups with 8 animals were used. The first group received ciprofloxacin (Sigma, Kawasaki, Kanagawa, Japan) administered i.p. once (1 h post-infection) at a dose of 10 mg/kg. The second group received saline (as a vehicle control) administered i.p. once (1 h post-infection). […] Survival was monitored for 7 days. After that survived animals were euthanized by CO2 asphyxiation.
# [7] = system: Gram-negative bacteria; assay: Geometric mean of MICs, Gram-negative panel; type: cell-based
# Experimental: as §1, with “The antimicrobial activity of the peptides was determined via the method of two-fold serial dilutions in sterile 96-well flat-bottom polystyrene microplates (Eppendorf #0030730011) in Mueller–Hinton broth (MHB, Sigma, Kawasaki, Kanagawa, Japan) supplemented with 0.9% NaCl. Bacterial” for “Bacterial”
# [8] = system: P. aeruginosa PAO1 mature biofilms; assay: Effect on mature biofilms, viability by MTT; details: P. aeruginosa PAO1 pre-formed biofilm, 2-h exposure
# Experimental: Biofilm viability was measured by tetrazolium salt reduction (right panel). Values are presented as means ± the standard deviation (SD) of three independent experiments.
# The effect of peptides on pre-formed biofilms was evaluated as follows. Biofilms were grown on a 96-well plate at 32 °C for 24 h and stirred at 120 rpm to ensure biofilm formation primarily on the wall of the wells. […] Bacterial survival in the biofilms after 2-h exposure was evaluated via a MTT assay after incubation with a tested peptide. Then, wells were rinsed with sterile water, treated with an MTT solution (Sigma, Kawasaki, Kanagawa, Japan) in PBS, and incubated for 4 h at 37 °C. Next, the medium was removed. The resulting formazan crystals were dissolved in a mixture of EtOH and DMSO (1:1) for 10 min. The optical density of the solution was measured at 570 nm. Bacterial survival was calculated as percent relative to samples without antimicrobial agent. All data were obtained from at least three independent experiments in 3 repetitions.
SMILES,RP-HPLC Retention Time [1] [min],Efficacy in the neutropenic peritonitis model (in words) [2],Fold reduction of antibacterial activity in the presence of serum [3] [fold],Hemolytic activity (in words) [4],Minimum inhibitory concentration (MIC): Gram-positive Geometric mean [5] [µM],other results
"CC[C@H](C)[C@@H]1NC(=O)[C@H](CCCNC(=N)N)NC(=O)[C@H](C(C)C)NC(=O)CNC(=O)[C@H](CC(N)=O)NC(=O)[C@H](CCCNC(=N)N)NC(=O)[C@H](Cc2ccc(O)cc2)NC(=O)[C@H](Cc2ccc(O)cc2)NC(=O)[C@@H]2CSSC[C@H](NC1=O)C(=O)N[C@@H](C(C)C)C(=O)N[C@@H](CCCNC(=N)N)C(=O)N[C@@H](Cc1ccc(O)cc1)C(=O)N[C@H](C(=O)N[C@@H](CC(N)=O)C(=O)O)CSSC[C@H](NC(=O)[C@H](Cc1ccccc1)NC(=O)CN)C(=O)NCC(=O)N[C@@H](Cc1ccc(O)cc1)C(=O)N[C@@H](C)C(=O)N2 [UuBRI-21] (H-GFCGYACYYRNGVRICVRYCN-OH; disulfide 3-20, 7-16)",28.48,lack of effectivity,16,moderate hemolytic activity,2,
"CC(C)[C@@H]1NC(=O)[C@H](Cc2ccc(O)cc2)NC(=O)[C@H](Cc2c[nH]c3ccccc23)NC(=O)[C@@H](NC(=O)[C@H](Cc2ccccc2)NC(=O)CN)CSSC[C@@H](C(=O)N[C@@H](CC(N)=O)C(=O)O)NC(=O)[C@H](CCCNC(=N)N)NC(=O)[C@H](CCCNC(=N)N)NC(=O)[C@H](Cc2ccc(O)cc2)NC(=O)[C@@H]2CSSC[C@H](NC1=O)C(=O)N[C@@H](C)C(=O)N[C@@H](CCCNC(=N)N)C(=O)N[C@@H](CCCNC(=N)N)C(=O)N[C@@H](CC(N)=O)C(=O)NCC(=O)N[C@@H](C)C(=O)N[C@@H](CCCNC(=N)N)C(=O)N[C@@H](C(C)C)C(=O)N2 [AA139, reference compound] (H-GFCWYVCARRNGARVCYRRCN-OH; disulfide 3-20, 7-16)",25.67,effective,4,,4,"Bacterial burden in mice blood (in words) ([2]; neutropenic BALB/c mice, n = 5, i.p. infection, single i.v. dose 1 h post-infection (AMPs 10 mg/kg, polymyxin B 5 mg/kg), CFU 5 h after treatment): complete reduction; Reduction of the CFU level in peritoneal fluid (PF) ([2]; neutropenic BALB/c mice, n = 5, single i.v. dose (AMPs 10 mg/kg, polymyxin B 5 mg/kg), CFU 5 h after treatment): ~ 5 log; Minimum Inhibitory Concentration, MHB + 0.9% NaCl + 25% FBS ([3]; Table 1, medium with 25% fetal bovine serum): 1 µM; Minimum Inhibitory Concentration, MHB + 0.9% NaCl ([3]; Table 1, without FBS, dilutions in 0.1% BSA): 0.25 µM; Therapeutic efficacy (survival) after one-week experiment ([6]; peptide i.p. 10 mg/kg at 1 and 4 h post-infection, 7 days): 87.5%"
"CC[C@H](C)[C@@H]1NC(=O)[C@H](CCCNC(=N)N)NC(=O)[C@H](C(C)C)NC(=O)CNC(=O)[C@H](CC(N)=O)NC(=O)[C@H](CCCNC(=N)N)NC(=O)[C@H](CCCNC(=N)N)NC(=O)[C@H](Cc2ccc(O)cc2)NC(=O)[C@@H]2CSSC[C@H](NC1=O)C(=O)N[C@@H](Cc1ccc(O)cc1)C(=O)N[C@@H](CCCNC(=N)N)C(=O)N[C@@H](CCCNC(=N)N)C(=O)N[C@H](C(=O)N[C@@H](CC(N)=O)C(=O)O)CSSC[C@H](NC(=O)[C@H](Cc1ccc(O)cc1)NC(=O)CN)C(=O)N[C@@H](Cc1ccccc1)C(=O)N[C@@H]([C@@H](C)O)C(=O)N[C@@H](C)C(=O)N2 [Ap4] (H-GYCFTACYRRNGVRICYRRCN-OH; disulfide 3-20, 7-16)",24.79,,,ability to lyse hRBCs is stronger,0.63,Minimum inhibitory concentration (MIC): Gram-negative Geometric mean ([7]; geometric mean (GM) of MICs against the 14 Gram-negative strains of Figure 2): 0.13 µM
"CC[C@H](C)[C@@H]1NC(=O)[C@H](CCCNC(=N)N)NC(=O)[C@H](C(C)C)NC(=O)CNC(=O)[C@H](CC(N)=O)NC(=O)[C@H](CCCNC(=N)N)NC(=O)[C@H](C)NC(=O)[C@H](Cc2ccc(O)cc2)NC(=O)[C@@H]2CSSC[C@H](NC1=O)C(=O)N[C@@H](Cc1ccc(O)cc1)C(=O)N[C@@H](CCCNC(=N)N)C(=O)N[C@@H](CCCNC(=N)N)C(=O)N[C@H](C(=O)N[C@@H](CC(N)=O)C(=O)O)CSSC[C@H](NC(=O)[C@H](Cc1ccc(O)cc1)NC(=O)CN)C(=O)N[C@@H](Cc1ccccc1)C(=O)N[C@@H]([C@@H](C)O)C(=O)N[C@@H](C)C(=O)N2 [Ap3] (H-GYCFTACYARNGVRICYRRCN-OH; disulfide 3-20, 7-16)",25.47,,,ability to lyse hRBCs is stronger,1,
"CC[C@H](C)[C@@H]1NC(=O)[C@H](CCCNC(=N)N)NC(=O)[C@H](C)NC(=O)CNC(=O)[C@H](CC(N)=O)NC(=O)[C@H](CCCNC(=N)N)NC(=O)[C@H](CCCNC(=N)N)NC(=O)[C@H](C)NC(=O)[C@@H]2CSSC[C@H](NC1=O)C(=O)N[C@@H](Cc1ccc(O)cc1)C(=O)N[C@@H](CCCNC(=N)N)C(=O)N[C@@H](CCCNC(=N)N)C(=O)N[C@H](C(=O)N[C@@H](CC(N)=O)C(=O)O)CSSC[C@H](NC(=O)[C@H](Cc1ccc(O)cc1)NC(=O)CN)C(=O)N[C@@H](Cc1ccccc1)C(=O)N[C@@H]([C@@H](C)O)C(=O)N[C@@H](C)C(=O)N2 [Ap11] (H-GYCFTACARRNGARICYRRCN-OH; disulfide 3-20, 7-16)",25.17,ineffective,4,,4,Fold reduction in the antimicrobial activity compared to Ap4 ([7]; Gram-negative GM values): at least 5 fold; Residual viability of bacteria in mature biofilm ([8]; 16 µM): about 20%
"O=C(O)c1cn(C2CC2)c2cc(N3CCNCC3)c(F)cc2c1=O [ciprofloxacin, reference compound]",,,,,,Survival (in words) ([6]; single i.p. dose of 10 mg/kg 1 h post-infection): survival of all mice; Effect on bacteria inside mature biofilm (in words) [8]: not able to impair bacteria inside biofilm
